Source: patent US11649233B2, “Halo-allylamine SSAO/VAP-1 inhibitor and use thereof” (Nanjing Transthera Biosciences Co., Ltd., priority 2017, dated 2023)
Counter-ions that a name gives are not always drawn.

Experiments:
[1] = Stability test in human liver microsome; format: in vitro ADME; settings: human liver microsome 0.5 mg protein/mL, compound 1 μM, β-NADPH
Protocol: Biological Example 3: Stability Test of the Compounds of the Present Invention in Human Liver Microsome
The composition of the incubation system:
(1) The liver microsome (20 mg protein/mL) was removed from the −80° C. refrigerator, pre-incubated in a 37° C. water bath constant temperature oscillator for 3 minutes, and thawed for use.
(2) A mixed solution of the incubation system (excluding compound and β-NADPH) according to the above “composition of the incubation system” for the test was prepared, and pre-incubated in a 37° C. water bath constant temperature oscillator for 2 minutes.
(3) Control group (excluding β-NADPH): 30 μL of water and 30 μL of compound working solution (concentration: 10 μM) were added to 240 μL of the mixed solution of the incubation system of step (2), and vortexed for 30 seconds to mix well. The total reaction volume was 300 μL. A duplicate sample was prepared. The sample was incubated in a 37° water bath constant temperature oscillator. The timing began and the sampling time points were set at 0 minute and 60 minutes.
(4) Sample group: 70 μL β-NADPH solution (10 mM) and 70 μL compound working solution (concentration: 10 μM) were added to 560 μL of the mixed solution in step (2). The total reaction volume was 700 μL. The resulting mixture was vortexed for 30 seconds to mix well. A duplicate sample was prepared. The sample was incubated in a 37° C. water bath constant temperature oscillator. The timing began and the sampling time points were set at 0 minute, 5 minutes, 10 minutes, 20 minutes, 30 minutes, and 60 minutes after timing.
(5) After vortexing for 3 minutes, the sample was centrifuged at 12000 rpm for 5 minutes.
(6) 150 μL of water was added to 50 μL of the supernatant. The resulting mixture was evenly mixed in vortex, and the sample LC/MS/MS analysis was performed.

MAO-B = MAO-B (Homo sapiens (Human), UniProt P27338); experiment: Selectivity of the compounds for MAO-B enzyme (MAO-Glo); format: biochemical; settings: 60 minutes pre-incubation at 37° C.
Protocol: (§1) 2. Selectivity of the Compounds for MAO-A/B Enzymes
(§2) Microplate reader (Perkin Elmer, Envision), 384 well plates (Perkin Elmer), centrifuge (Eppendorf), MAO-Glo™ (Promega), MAO-A (Active Motif) and MAO-B (Active Motif).
(§3) An appropriate amount of the test compound was dissolved in DMSO to 10 mM and stored. Before the experiment, an appropriate amount of 10 mM test compound mother liquor was diluted to 100 μM solution with DMSO. Then 4-fold gradient dilution with DMSO was performed, and 6 concentration gradients were formed.
(§4) The MAO-A/B mother liquor was diluted to 2×concentration enzyme solution with the assay buffer solution for the MAO-A/B.
(§5) The mother liquor of the MAO-A/B substrate mixed solution was diluted to 2×concentration substrate mixed solution with the assay buffer solution for the MAO-A/B.
(§6) 200 nL of compound solutions of different concentrations or solvent
(§7) and 10 μL of 2×MAO-A/B enzyme solution were added to a 384-well plate, evenly mixed by oscillation, and incubated at 37° C. for 60 minutes. Then 10 μL of 2×substrate mixed solution was added to each well, and immediately the detection was performed with the microplate reader in a condition of an exciting light at 535 nm, an emitting light at 587 nm, the fluorescence intensity for detecting each well of 5 minutes/run, and a total detection time of 25 minutes.
(§8) The inhibition rate was calculated according to the following formula: V(RFU/min)=(Ft(RFU)−F0(RFU))/(Time(min)) Inhibition rate (%)=100%−Vcmpd(RFU/min)/V max(RFU/min)×100%
(§9) V: the fluorescence change rate; Ft: fluorescence reading at the time point t; F0: fluorescence reading at the time point 0; Time: time period t; Vcmpd: the fluorescence change rate of the test compound; Vmax: the Max well fluorescence change rate.
(§10) The log values of the concentrations were taken as the X-axis and the percent inhibition rates were taken as the Y-axis, and the dose-effect curve was fitted using the log(inhibitor) vs. response-Variable slope of the analytical software GraphPad Prism 5 to obtain the IC50 value of each compound for enzyme activity.

rhVAP-1 [2] = target: T1, rhVAP-1 (Homo sapiens (Human), UniProt Q16853); experiment: Inhibition activity of the compounds on the rhVAP-1 enzyme (Amplex Red/HRP fluorescence, benzylamine substrate); format: biochemical; settings: 30 minutes pre-incubation at 37° C.
Protocol: 1. Inhibition Activity of the Compounds on the rhVAP-1 Enzyme
Multifunctional microplate reader (MD, FlexStation 3), black bottom-impermeable 96-well plate (Corning), rhVAP-1 (PeproTech)
as §3, with “10” for “100”, “3-fold” for “4-fold”, “10” for “6”
An appropriate amount of protein diluent was added to the rhVAP-1 powder to obtain 1 mg/mL of the mother liquor for storage. Before the experiment, the dilution with PBS provided a 4×concentration of the enzyme solution.
An appropriate amount of benzylamine was added to PBS and dissolved to obtain 200 mM of the benzylamine solution. 2 mM Amplex Red mother liquor and 500 U/mL HRP mother liquor were added. The dilution with PBS provided 2×concentration substrate mixed solution.
(§11) First, 10 μL of compound solutions of different concentrations, 25 μL of 4×rhVAP-1 enzyme solution and 15 μL of PBS were added to a 96-well plate, evenly mixed by oscillation, and incubated at 37° C. for 30 minutes. Then 50 μL of 2×substrate mixed solution was added to each well, and immediately the detection was performed with the microplate reader in a condition of an exciting light at 565 nm, an emitting light at 590 nm, the fluorescence intensity for detecting each well of 5 minutes/run, and a total detection time of 25 minutes. The inhibition rate was calculated according to the following formula: V(RFU/min)=(Ft(RFU)−F0(RFU))/(Time(min)) Inhibition rate (%)=100%−Vcmpd(RFU/min)/V max(RFU/min)×100%
as §9, §10

MAO-A = MAO-A (Homo sapiens (Human), UniProt P21397); experiment: Selectivity of the compounds for MAO-A enzyme (MAO-Glo); format: biochemical; settings: 60 minutes pre-incubation at 37° C.
Protocol: as §1, §2, §3, §4, §5, §6, §7, §8, §9, §10

rhVAP-1 [3] = target: T1, rhVAP-1; experiment: Time-dependent inhibition assay for the rhVAP-1 enzyme; format: biochemical
Protocol: Biological example 4: Time-dependent inhibition assay for the rhVAP-1 enzyme
After incubation of the test substances at corresponding time intervals according to Table 4, the activity was measured at each time point in the same manner as in the rhVAP-1 enzymatic test method of biological example 1.
as §11, with “Specifically,” for “First,”, “concentrations or solvent,” for “concentrations,”, “0 minutes, 3 minutes, 6 minutes, 9 minutes and 12” for “30”, “minutes.” for “minutes. The inhibition rate was calculated according to the following formula: V(RFU/min)=(Ft(RFU)−F0(RFU))/(Time(min)) Inhibition rate (%)=100%−Vcmpd(RFU/min)/V max(RFU/min)×100%”

T1 sequence (Q16853 whole entry): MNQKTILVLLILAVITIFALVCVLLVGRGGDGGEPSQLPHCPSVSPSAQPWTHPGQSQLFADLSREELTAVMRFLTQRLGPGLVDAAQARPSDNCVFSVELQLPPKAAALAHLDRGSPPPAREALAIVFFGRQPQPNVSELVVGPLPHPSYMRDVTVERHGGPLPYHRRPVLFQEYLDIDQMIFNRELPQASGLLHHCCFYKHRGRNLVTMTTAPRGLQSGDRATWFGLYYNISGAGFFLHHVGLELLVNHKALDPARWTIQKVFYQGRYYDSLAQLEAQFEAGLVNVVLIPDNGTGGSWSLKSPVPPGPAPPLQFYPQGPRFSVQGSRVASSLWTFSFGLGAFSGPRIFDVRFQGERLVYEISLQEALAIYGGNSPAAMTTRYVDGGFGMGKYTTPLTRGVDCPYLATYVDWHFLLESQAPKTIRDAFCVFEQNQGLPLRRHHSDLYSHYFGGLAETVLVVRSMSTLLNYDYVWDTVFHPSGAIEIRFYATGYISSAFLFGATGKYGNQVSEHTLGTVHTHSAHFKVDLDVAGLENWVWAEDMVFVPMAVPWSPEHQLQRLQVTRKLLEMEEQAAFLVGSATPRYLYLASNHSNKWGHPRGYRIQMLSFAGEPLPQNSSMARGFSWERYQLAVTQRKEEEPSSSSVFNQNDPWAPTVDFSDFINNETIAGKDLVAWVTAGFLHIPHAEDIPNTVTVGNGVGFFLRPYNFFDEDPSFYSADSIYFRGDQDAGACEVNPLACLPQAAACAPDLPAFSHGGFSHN
Chain of MAO-B (P27338 whole entry): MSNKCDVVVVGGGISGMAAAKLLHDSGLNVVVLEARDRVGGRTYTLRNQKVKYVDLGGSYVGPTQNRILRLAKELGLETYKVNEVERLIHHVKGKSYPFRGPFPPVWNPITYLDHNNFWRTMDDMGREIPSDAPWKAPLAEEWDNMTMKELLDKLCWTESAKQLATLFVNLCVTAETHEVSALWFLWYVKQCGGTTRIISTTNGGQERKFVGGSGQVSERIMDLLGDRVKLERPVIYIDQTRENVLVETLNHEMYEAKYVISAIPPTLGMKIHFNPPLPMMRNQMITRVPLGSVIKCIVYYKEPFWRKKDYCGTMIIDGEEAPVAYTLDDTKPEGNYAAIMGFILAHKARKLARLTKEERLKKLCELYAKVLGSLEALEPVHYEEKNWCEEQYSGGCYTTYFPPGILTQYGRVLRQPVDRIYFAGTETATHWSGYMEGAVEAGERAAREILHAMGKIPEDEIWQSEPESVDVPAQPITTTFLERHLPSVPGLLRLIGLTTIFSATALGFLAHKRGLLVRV
Chain of MAO-A (P21397 whole entry): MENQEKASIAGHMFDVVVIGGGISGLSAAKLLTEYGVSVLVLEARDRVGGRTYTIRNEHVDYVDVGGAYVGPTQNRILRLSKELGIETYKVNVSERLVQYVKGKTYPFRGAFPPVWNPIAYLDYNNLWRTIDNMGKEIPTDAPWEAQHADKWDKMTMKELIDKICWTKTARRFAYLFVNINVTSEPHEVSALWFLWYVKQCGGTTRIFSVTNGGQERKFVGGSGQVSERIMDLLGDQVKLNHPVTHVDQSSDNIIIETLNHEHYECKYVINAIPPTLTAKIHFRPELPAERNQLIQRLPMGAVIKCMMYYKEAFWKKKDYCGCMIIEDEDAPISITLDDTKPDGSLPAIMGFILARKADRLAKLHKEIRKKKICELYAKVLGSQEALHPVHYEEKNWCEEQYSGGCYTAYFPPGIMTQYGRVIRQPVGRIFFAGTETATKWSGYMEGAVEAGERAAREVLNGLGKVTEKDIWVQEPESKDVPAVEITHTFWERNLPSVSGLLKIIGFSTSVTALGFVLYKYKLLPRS

ClH [1]	IC50 (MAO-B)	IC50 (rhVAP-1 [2])	Compound	also measured
–	–	11 nM	NC/C(=C/F)COc1ccc2c(c1)C(=O)N(C1CC1)C2=O [Hydrochloride of Compound 31, (Z)-5-((2-(aminomethyl)-3-fluoroallyl)oxy)-2-cyclopropylisoindolin-1,3-dione]	–
–	8400 nM	6 nM	NC/C(=C/F)COc1ccc2c(c1)CCN(C1CC1)C2=O [Hydrochloride of Compound 34, (Z)-6-((2-(aminomethyl)-3-fluoroallyl)oxy)-2-cyclopropyl-3,4-dihydroisoquinolin-1(2H)-one]	–
–	19000 nM	14 nM	NC/C(=C/F)COc1ccc2c(n1)CCN(C1CC1)C2=O [Trifluoroacetate of Compound 23, (Z)-2-((2-(aminomethyl)-3-fluoroallyl)oxy)-6-cyclopropyl-7,8-dihydro-1,6-naphthyridin-5(6H)-one]	IC50 (MAO-A): 10000 nM; IC50 (rhVAP-1 [3]; pre-incubation 0 minute): 206 nM; IC50 (rhVAP-1 [3]; pre-incubation 3 minutes): 18.6 nM; IC50 (rhVAP-1 [3]; pre-incubation 6 minutes): 15.2 nM; IC50 (rhVAP-1 [3]; pre-incubation 9 minutes): 14 nM; IC50 (rhVAP-1 [3]; pre-incubation 12 minutes): 12.5 nM
→0 mL/min/kg	37000 nM	24 nM	NC/C(=C\F)COc1ccc2c(n1)CN(C1CC1)C2=O [Trifluoroacetate of Compound 24, (E)-2-((2-(aminomethyl)-3-fluoroallyl)oxy)-6-cyclopropyl-6,7-dihydro-5H-pyrrolo[3,4-b]pyridin-5-one]	–
–	13000 nM	25 nM	NC/C(=C/F)COc1ccc2c(n1)CN(C1CC1)C2=O [Trifluoroacetate of Compound 25, (Z)-2-((2-(aminomethyl)-3-fluoroallyl)oxy)-6-cyclopropyl-6,7-dihydro-5H-pyrrolo[3,4-b]pyridin-5-one]	–
–	8800 nM	51 nM	NC/C(=C\F)COc1ccc2c(n1)CCN(C1CC1)C2=O [Trifluoroacetate of Compound 26, (E)-2-((2-(aminomethyl)-3-fluoroallyl)oxy)-6-cyclopropyl-7,8-dihydro-1,6-naphthyridin-5(6H)-one]	–
–	6600 nM	11 nM	NC/C(=C/F)COc1cc2c(cn1)C(=O)N(C1CC1)CC2 [Trifluoroacetate of Compound 32, (Z)-6-((2-(aminomethyl)-3-fluoroallyl)oxy)-2-cyclopropyl-3,4-dihydro-2,7-naphthyridine-1(2H)-one]	–
–	8600 nM	14 nM	NC/C(=C/F)COc1cc2c(cn1)C(=O)N(C1CC1)C2 [Trifluoroacetate of Compound 33, (Z)-6-((2-(aminomethyl)-3-fluoroallyl)oxy)-2-cyclopropyl-1,2-dihydro-3H-pyrrolo-[3,4-c]pyridin-3-one]	–

Continued, molecule first:

Compound	ClH [1]	IC50 (MAO-B)	IC50 (rhVAP-1 [2])	also measured
NC/C(=C\F)COc1cc2c(cn1)C(=O)N(C1CC1)CC2 [Compound 22, (E)-6-((2-(aminomethyl)-3-fluoroallyl)oxy)-2-cyclopropyl-3,4-dihydro-2,7-naphthyridin-1(2H)-one]	2.94 mL/min/kg	–	–	–
NC/C(=C/F)COc1ccc2c(n1)CCN(C1CC1)C2=O [Compound 23, (Z)-2-((2-(aminomethyl)-3-fluoroallyl)oxy)-6-cyclopropyl-7,8-dihydro-1,6-naphthyridin-5(6H)-one]	4.63 mL/min/kg	–	–	–
NC/C(=C\F)COc1cnc2c(c1)CCNC2=O [Hydrochloride of Compound 8, (E)-3-((2-(aminomethyl)-3-fluoroallyl)oxy)-6,7-dihydro-1,7-naphthyridin-8(5H)-one]	–	> 100000 nM	30 nM	–
Cl.NC/C(=C\F)COc1ccc2c(c1)CN(C1CC1)C2=O [Hydrochloride of Compound 16, (E)-5-((2-(aminomethyl)-3-fluoroallyl)oxy)-2-cyclopropyl isoindolin-1-one]	0.18 mL/min/kg	2800 nM	24 nM	–
CCN(CC)C(=O)c1ccc(OC/C(=C/F)CN)cn1.Cl [Hydrochloride of Compound 19, (E)-5-((2-(aminomethyl)-3-fluoroallyl)oxy)-N,N-diethylpicolinamide]	→0 mL/min/kg	–	21 nM	–
Cl.NC/C(=C\F)COc1cc2c(cn1)C(=O)N(C1CC1)C2 [Hydrochloride of Compound 21, (E)-6-((2-(aminomethyl)-3-fluoroallyl)oxy)-2-cyclopropyl-1,2-dihydro-3H-pyrrolo-[3,4-c]pyridin-3-one]	4.95 mL/min/kg	14000 nM	21 nM	IC50 (MAO-A): > 100000 nM
NC/C(=C\F)COc1cnc2c(c1)CN(C1CC1)C2=O [Hydrochloride of Compound 27, (E)-3-((2-(aminomethyl)-3-fluoroallyl)oxy)-6-cyclopropyl-5,6-dihydro-7H-pyrrolo[3,4-b]pyridin-7-one]	–	38000 nM	16 nM	–
Cl.NC/C(=C/F)COc1cnc2c(c1)CN(C1CC1)C2=O [Hydrochloride of Compound 28, (Z)-3-((2-(aminomethyl)-3-fluoroallyl)oxy)-6-cyclopropyl-5,6-dihydro-7H-pyrrolo[3,4-b]pyridin-7-one]	→0 mL/min/kg	20000 nM	14 nM	–
Cl.NC/C(=C/F)COc1ccc2c(c1)CN(C1CC1)C2=O [Hydrochloride of Compound 29, (Z)-5-((2-(aminomethyl)-3-fluoroallyl)oxy)-2-cyclopropylisoindolin-1-one]	4.18 mL/min/kg	4100 nM	25 nM	–
NC/C(=C\F)COc1ccc2c(c1)C(=O)N(C1CC1)C2=O [Hydrochloride of Compound 30, (E)-5-((2-(aminomethyl)-3-fluoroallyl)oxy)-2-cyclopropyl isoindolin-1,3-dione]	–	5800 nM	32 nM	–
